Results on eleven compounds are retold here after US20100144733A1, “Compounds, compositions and methods comprising heteroaromatic derivatives” (Institute for OneWorld Health, priority 2008, published 2010).

For one assay, the target named is T1, CFTR (Homo sapiens, UniProt P13569).
T1 construct: endogenous in cells; host or cells: T84 human colonic cells (ECACC)
Nature of the assay: T84 assay (FLIPR membrane potential dye, forskolin/IBMX-stimulated CFTR channel activity). It is filed as cell-based. In a few lines: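 Fluorescence from a membrane potential dye in T84 monolayers (HBSS with 10 mM Hepes) is followed each second for 150 s. Cells are exposed to test compound during the 45 min dye loading, then challenged with forskolin (10 μM) and IBMX (100 μM) to open CFTR. Inhibitors suppress the depolarization-driven fluorescence increase.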

The subject of assay [1] is cholera toxin (CTX) induced net fluid secretion in intestinal loops. As to the kind of experiment: animal or person. It counts as in vivo, mice (CD1 strain). Particulars: 4 hours; for inhibition in vivo at 100 µg/loop: Mus musculus, read-out: closed loop % inhibition @ 100 μg.
Where [2] appears, read: oxadiazole-containing compounds (a series), average of at least 2 runs unless annotated n = 1, read-out: IC50.

Each structure is given as a SMILES string. Read-outs that look alike come from different tables or passages of the source.

T1 sequence (P13569 whole entry): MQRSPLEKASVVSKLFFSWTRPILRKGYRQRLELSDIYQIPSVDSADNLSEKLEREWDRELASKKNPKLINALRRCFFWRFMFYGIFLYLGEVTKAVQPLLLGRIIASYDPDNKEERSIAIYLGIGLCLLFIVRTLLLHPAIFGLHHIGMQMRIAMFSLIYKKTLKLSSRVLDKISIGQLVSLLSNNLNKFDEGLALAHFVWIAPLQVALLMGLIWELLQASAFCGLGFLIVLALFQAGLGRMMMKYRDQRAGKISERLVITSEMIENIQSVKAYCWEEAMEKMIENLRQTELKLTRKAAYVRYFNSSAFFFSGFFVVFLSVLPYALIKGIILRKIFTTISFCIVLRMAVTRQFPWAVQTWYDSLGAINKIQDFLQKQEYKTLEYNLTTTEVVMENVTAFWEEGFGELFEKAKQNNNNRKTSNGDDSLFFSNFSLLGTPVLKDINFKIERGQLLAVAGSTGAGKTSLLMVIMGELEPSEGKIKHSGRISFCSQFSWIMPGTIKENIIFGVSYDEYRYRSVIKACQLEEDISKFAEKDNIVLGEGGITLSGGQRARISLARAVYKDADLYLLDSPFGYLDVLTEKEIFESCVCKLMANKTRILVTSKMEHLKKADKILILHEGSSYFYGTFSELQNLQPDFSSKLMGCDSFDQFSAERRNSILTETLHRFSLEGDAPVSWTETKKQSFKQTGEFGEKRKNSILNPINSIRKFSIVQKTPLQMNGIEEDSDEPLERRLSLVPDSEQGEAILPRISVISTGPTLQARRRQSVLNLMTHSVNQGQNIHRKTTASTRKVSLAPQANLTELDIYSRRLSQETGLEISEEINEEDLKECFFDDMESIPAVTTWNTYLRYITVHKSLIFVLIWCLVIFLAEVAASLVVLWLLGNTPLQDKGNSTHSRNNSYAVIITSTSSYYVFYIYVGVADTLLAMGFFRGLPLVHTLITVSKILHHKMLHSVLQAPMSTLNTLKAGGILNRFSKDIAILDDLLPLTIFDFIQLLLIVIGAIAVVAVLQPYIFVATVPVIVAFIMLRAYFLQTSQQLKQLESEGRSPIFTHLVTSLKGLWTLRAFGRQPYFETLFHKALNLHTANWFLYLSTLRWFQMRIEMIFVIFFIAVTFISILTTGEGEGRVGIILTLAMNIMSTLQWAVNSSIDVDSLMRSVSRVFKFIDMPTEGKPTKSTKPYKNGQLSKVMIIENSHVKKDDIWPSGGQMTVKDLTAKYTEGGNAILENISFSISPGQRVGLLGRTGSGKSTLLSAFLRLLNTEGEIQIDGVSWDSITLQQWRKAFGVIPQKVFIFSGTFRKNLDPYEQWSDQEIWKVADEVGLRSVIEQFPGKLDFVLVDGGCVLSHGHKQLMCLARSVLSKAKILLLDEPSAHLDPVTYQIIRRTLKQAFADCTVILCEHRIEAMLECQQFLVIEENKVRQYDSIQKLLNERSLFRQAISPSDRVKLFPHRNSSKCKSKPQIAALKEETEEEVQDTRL

Broadly, the IC50 is the concentration that inhibits the measured activity by half. On to `CC(C)(C)C(=O)CN(Cc1cccc(C(F)(F)F)c1)C(=O)c1nc(-c2cc(Br)c(O)c(Br)c2)no1` [1a, 3-(3,5-dibromo-4-hydroxyphenyl)-N-(3,3-dimethyl-2-oxobutyl)-N-(3-(trifluoromethyl)benzyl)-1,2,4-oxadiazole-5-carboxamide], for which, on CFTR (setting [2]), the IC50 was determined as 0.98 µM. Besides, in assay [1], the “closed loop % inhibition @ 10 μg” value is 69.4% and the inhibition in vivo at 100 µg/loop is 87.1%.
With `Oc1c(Cl)cc(-c2cnc(OCc3ccccc3F)nn2)cc1Cl` [127e, 2,6-dichloro-4-(3-(2-fluorobenzyloxy)-1,2,4-triazin-6-yl)phenol], in assay [1], the “closed loop % inhibition @ 10 μg” value is listed as 62.7% and the “closed loop % inhibition @ 100 μg” value came to 70.2%.
`O=C(NCc1ccc(Oc2ccccc2)cc1)c1nc(-c2cc(Br)c(O)c(Br)c2)no1` [13a, 3-(3,5-dibromo-4-hydroxyphenyl)-N-(4-phenoxybenzyl)-1,2,4-oxadiazole-5-carboxamide]: the IC50 at CFTR (setting [2]) was found to be 8.51 µM. Also, in assay [1], the “closed loop % inhibition @ 10 μg” value is given as 88.6% and the inhibition in vivo at 100 µg/loop was determined as 94.7%.
On to `Oc1c(Cl)cc(-c2cnc(C(O)(c3ccccc3)c3ccccc3)nn2)cc1Cl` [36e, 2,6-dichloro-4-(3-(hydroxydiphenylmethyl)-1,2,4-triazin-6-yl)phenol], for which, in assay [1], the “closed loop % inhibition @ 10 μg” value came out at 62.1% and the “closed loop % inhibition @ 100 μg” value is listed as 74.9%.
Take `O=C(NCc1cc(F)cc(F)c1)c1noc(-c2cc(Cl)c(O)c(Cl)c2)n1` [112a, 5-(3,5-dichloro-4-hydroxyphenyl)-N-(3,5-difluorobenzyl)-1,2,4-oxadiazole-3-carboxamide]: the IC50 at CFTR (setting [2]) was 11.2 µM. The inhibition in vivo at 100 µg/loop in assay [1] came to 51%.
Regarding `OCCN(Cc1ccccc1)c1ccc(-c2cc(Cl)c(O)c(Cl)c2)nn1` [98f, 4-(6-(benzyl(2-hydroxyethyl)amino)pyridazin-3-yl)-2,6-dichlorophenol], the “closed loop % inhibition @ 100 μg” value in assay [1] stood at 67.0%.
The same measure, in the same setting: as for `Oc1c(Br)cc(-c2cnc(OCc3ccc(Cl)cc3)nn2)cc1Br` [20e, 2,6-dibromo-4-(3-(4-chlorobenzyloxy)-1,2,4-triazin-6-yl)phenol], the figure is 87.6%.
Take `O=C(NCc1cccc(OC(F)(F)F)c1)c1noc(-c2cc(Cl)c(O)c(Cl)c2O)n1` [120a, 5-(3,5-dichloro-2,4-dihydroxyphenyl)-N-(3-(trifluoromethoxy)benzyl)-1,2,4-oxadiazole-3-carboxamide]: at CFTR (setting [2]), the IC50 was 12.4 µM. In assay [1], the inhibition in vivo at 100 µg/loop amounted to 62.3%.
Take `Oc1c(Br)cc(-c2cnc(OCCc3ccccc3)nn2)cc1Br` [96e, 2,6-dibromo-4-(3-phenethoxy-1,2,4-triazin-6-yl)phenol]: in assay [1], the “closed loop % inhibition @ 100 μg” value amounted to 78.6%.
Regarding `CN(Cc1ccc(C(F)(F)F)cc1)C(=O)c1cc(-c2cc(Br)c(O)c(Br)c2)on1` [2g, 5-(3,5-Dibromo-4-hydroxyphenyl)-N-methyl-N-(4(trifluoromethyl)benzyl)isoxazole-3-carboxamide], the IC50 at CFTR (isoxazole-containing compounds (Table 10, 10′, 11, 11′), read-out: IC50) came to 6.96 µM. Also, in assay [1], the “closed loop % inhibition @ 10 μg” value is −66.3% and the inhibition in vivo at 100 µg/loop stood at 94.2%.
Consider `O=C(NCc1cccc(OC(F)(F)F)c1)c1noc(-c2cc(Br)c(O)c(Br)c2)n1` [65a, 5-(3,5-Dibromo-4-hydroxyphenyl)-N-(3-(trifluoromethoxy)benzyl)-1,2,4-oxadiazole-3-carboxamide], for which the IC50 on CFTR (setting [2]) is 1.53 µM. The inhibition in vivo at 100 µg/loop in assay [1] was 94.6%.
